Measured values taken from patent US20140135327A1, “N- (2 -AMINOPHENYL) BENZAMIDE DERIVATIVES AS HISTONE DEACETYLASE INHIBITORS” (CANCER RESEARCH TECHNOLOGY LIMITED, priority 2011, published 2014).

Legend:
Assay type in all cases: biochemical
HDAC 8 = target: T1, HDAC 8 (Homo sapiens, UniProt Q9BY41); experiment: Fluorescence-based HDAC isoform assay with electrophoretic separation, HDAC 8; settings: isolated 6×His-tagged isoform, 1 μM FAM-labeled acetylated peptide, 17 h at 25° C.
T1 construct: HDACs 1, 2, 3, 6, and 8 were expressed as full length fusion proteins; 6xHis; made in house; host or cells: Sf9 cells (baculovirus)
T1 sequence (Q9BY41 1-377): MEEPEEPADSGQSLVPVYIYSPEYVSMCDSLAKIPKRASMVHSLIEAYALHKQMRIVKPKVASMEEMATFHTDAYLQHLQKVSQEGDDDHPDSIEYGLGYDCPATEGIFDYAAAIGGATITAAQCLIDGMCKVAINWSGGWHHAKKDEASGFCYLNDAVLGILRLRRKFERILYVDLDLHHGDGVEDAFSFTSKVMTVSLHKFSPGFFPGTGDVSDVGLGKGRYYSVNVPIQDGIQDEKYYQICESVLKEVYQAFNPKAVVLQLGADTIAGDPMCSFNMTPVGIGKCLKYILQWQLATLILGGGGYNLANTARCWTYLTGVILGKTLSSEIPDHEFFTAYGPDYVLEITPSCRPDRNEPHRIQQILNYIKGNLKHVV
Procedure: (§1) The inhibitory effects of the compounds of Examples 7 and 9 above on HDAC activity were determined using a fluorescence-based assay with electrophoretic separation of substrate and product carried out using a microfluidic system followed by quantitation of fluorescence intensity in the substrate and product peaks.
(§2) The assays were performed using isolated HDAC isoforms that had been expressed as 6×His-tagged fusion proteins in a baculovirus expression system in Sf9 cells. HDACs 1, 2, 3, 6, and 8 were expressed as full length fusion proteins. For HDAC-4 and 7 only catalytic domains were expressed (HDAC-4 CAT and HDAC-7 CAT). The HDAC10 fusion protein was expressed as a carboxy-terminal deletion of 38 amino acids (residues 632-669). HDAC3 was coexpressed with a fragment of the SMRT gene (residues 395-489) to generate enzymatically active protein. Purified proteins were incubated with 1 μM carboxyfluorescein (FAM)-labeled acetylated peptide substrate and test compound for 17 h at 25° C. in HDAC assay buffer containing 100 mM HEPES (pH 7.5), 25 mM KCl, 0.1% BSA, and 0.01% Triton X-100. […] Substrate and product were separated electrophoretically using a Caliper LabChip 3000 system with blue laser excitation and green fluorescence detection (CCD2). The fluorescence intensity in the substrate and product peaks was determined using the Well Analyzer software on the Caliper system. […]

HDAC 7-CAT = target: T2, HDAC 7-CAT (Homo sapiens, UniProt Q8WUI4); experiment: Fluorescence-based HDAC isoform assay with electrophoretic separation, HDAC 7-CAT; settings: catalytic domain only, 1 μM FAM-labeled acetylated peptide, 17 h at 25° C.
T2 construct: For HDAC-4 and 7 only catalytic domains were expressed (HDAC-4 CAT and HDAC-7 CAT); 6xHis; made in house; host or cells: Sf9 cells (baculovirus)
T2 sequence (Q8WUI4 512-865 limits assumed): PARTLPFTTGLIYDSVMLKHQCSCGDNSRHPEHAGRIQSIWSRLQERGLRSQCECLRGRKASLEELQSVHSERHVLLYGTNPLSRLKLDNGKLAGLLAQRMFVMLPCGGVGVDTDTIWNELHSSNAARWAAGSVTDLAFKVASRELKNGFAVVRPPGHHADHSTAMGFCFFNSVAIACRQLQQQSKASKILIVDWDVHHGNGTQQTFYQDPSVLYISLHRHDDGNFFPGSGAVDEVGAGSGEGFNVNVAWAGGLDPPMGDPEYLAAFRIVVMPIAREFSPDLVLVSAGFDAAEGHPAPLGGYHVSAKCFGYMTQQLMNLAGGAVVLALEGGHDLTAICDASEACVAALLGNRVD
Procedure: as §1, §2

HDAC 6 = target: T3, HDAC 6 (Homo sapiens, UniProt Q9UBN7); experiment: Fluorescence-based HDAC isoform assay with electrophoretic separation, HDAC 6; settings: isolated 6×His-tagged isoform, 1 μM FAM-labeled acetylated peptide, 17 h at 25° C.
T3 sequence (Q9UBN7 1-1215): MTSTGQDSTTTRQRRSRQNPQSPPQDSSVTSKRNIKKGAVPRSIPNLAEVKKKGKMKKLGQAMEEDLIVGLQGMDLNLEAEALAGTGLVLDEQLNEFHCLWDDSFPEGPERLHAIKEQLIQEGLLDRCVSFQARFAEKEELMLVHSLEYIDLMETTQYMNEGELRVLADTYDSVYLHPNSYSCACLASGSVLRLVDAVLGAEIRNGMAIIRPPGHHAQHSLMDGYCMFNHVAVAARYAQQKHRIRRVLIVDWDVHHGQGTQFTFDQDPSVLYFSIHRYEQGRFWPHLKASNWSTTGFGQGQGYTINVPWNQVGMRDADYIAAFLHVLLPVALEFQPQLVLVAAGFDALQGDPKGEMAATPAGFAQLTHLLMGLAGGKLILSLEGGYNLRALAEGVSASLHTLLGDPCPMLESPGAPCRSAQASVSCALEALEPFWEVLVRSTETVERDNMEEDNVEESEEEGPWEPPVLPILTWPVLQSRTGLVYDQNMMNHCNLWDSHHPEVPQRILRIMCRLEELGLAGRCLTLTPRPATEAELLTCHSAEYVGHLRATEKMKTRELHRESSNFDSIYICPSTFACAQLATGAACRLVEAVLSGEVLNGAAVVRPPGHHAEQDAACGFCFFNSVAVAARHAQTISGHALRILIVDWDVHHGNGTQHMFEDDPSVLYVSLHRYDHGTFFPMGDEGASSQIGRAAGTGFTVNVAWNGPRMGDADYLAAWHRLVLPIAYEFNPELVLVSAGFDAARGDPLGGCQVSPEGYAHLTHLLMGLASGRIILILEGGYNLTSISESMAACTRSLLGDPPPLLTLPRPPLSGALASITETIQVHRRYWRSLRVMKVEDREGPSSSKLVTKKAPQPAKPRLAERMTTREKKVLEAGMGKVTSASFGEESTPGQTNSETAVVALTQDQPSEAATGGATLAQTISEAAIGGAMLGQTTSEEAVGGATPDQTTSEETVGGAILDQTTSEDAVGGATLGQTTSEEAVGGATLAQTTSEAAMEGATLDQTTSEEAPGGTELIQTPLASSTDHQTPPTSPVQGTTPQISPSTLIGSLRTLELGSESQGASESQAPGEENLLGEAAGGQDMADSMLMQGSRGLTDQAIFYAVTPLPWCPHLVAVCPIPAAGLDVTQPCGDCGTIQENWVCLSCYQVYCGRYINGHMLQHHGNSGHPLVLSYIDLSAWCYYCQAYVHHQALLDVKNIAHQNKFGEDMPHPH
Procedure: as §1, §2

In the case of `C=C1CN(Cc2ccc(C(=O)Nc3ccccc3N)cc2)C(=O)c2ccccc21` [Example 7, N-(2-Aminophenyl)-4-[(4-methylene-1-oxo-3,4-dihydroisoquino-2(1H)-yl)methyl]benzamide], the IC50 (HDAC 8) is reported as > 30 µM, the IC50 (HDAC 7-CAT) is reported as 7.53 µM and the IC50 (HDAC 6) is reported as > 30 µM.
With `C=C1CN(Cc2ccc(C(=O)Nc3ccccc3N)cc2)C(CC(=O)O)c2ccccc21` (stereo not drawn) [Example 9, [2-(4-{[(2-Aminophenyl)amino]carbonyl}benzyl)-4-methylene-1,2,3,4-tetra hydroisoquinolin-1-yl]acetic acid] the IC50 (HDAC 8) was > 30 µM, the IC50 (HDAC 7-CAT) was > 30 µM and the IC50 (HDAC 6) was > 30 µM.
